Here are results for 7 molecules from patent publication US5010076A, “1,7-fused 1H-indole-2-carboxylic acid-N-(1,4-benzodiazepin-3-yl)amides” (Kali-Chemie Pharma GmbH, priority 1989, dated 1991).

Structures are written as SMILES.

In data set [1] the test system is CCK-induced gallbladder emptying. The data set can be described thus: inhibitory effect of test substances on CCK-induced gallbladder emptying (gallbladder weight). The format is in vivo, mouse (female NMRI). Here is the method: CCK causes a contraction of the muscles of the gallbladder and thus an emptying of the gallbladder. […] Intraperitoneal doses of 0.1 μg/kg CCK-8 may result in the weight of the gallbladders decreasing to about 1/10 of the original weight.
Female NMRI mice having a body weights of 20-25 g were used in groups of 10 animals each. After withdrawal of feed for 24 hours (drinking water ad libitum) the animals received an oral dose of the test substance suspended in a volume of 10 ml/kg of body weight of a 1% strength Tylose® solution (=methylcellulose) or in a volume of 10 ml/kg of body weight of a solubilizer solution which contained 5% glycerol, 87% polyethylene glycol 400, and 8% water. Two control groups each received only the Tylose® solution or the solution containing the solubilizer polyethylene glycol. One of the control groups and all the animals treated with test substance received 0.1 Ig/kg CCK-8 injected i.p. 60 minutes later.
The mice were sacrificed 5 minutes after the CCK-8 administration, and the gallbladders were excised and weighed.
The following Table C lists the percentage inhibition of the CCK-8 effect on gallbladder weights caused by the test substances.

Data set [2] deals with T1, peripheral CCK receptors (pancreas) (Rattus norvegicus, UniProt P30551).
T1 construct: Whole pancreas glands from male Wistar rats with a body weight of 150-300 g; from tissue; host or cells: whole pancreas glands of male Wistar rats, washed homogenate
T1 sequence (P30551 1-444): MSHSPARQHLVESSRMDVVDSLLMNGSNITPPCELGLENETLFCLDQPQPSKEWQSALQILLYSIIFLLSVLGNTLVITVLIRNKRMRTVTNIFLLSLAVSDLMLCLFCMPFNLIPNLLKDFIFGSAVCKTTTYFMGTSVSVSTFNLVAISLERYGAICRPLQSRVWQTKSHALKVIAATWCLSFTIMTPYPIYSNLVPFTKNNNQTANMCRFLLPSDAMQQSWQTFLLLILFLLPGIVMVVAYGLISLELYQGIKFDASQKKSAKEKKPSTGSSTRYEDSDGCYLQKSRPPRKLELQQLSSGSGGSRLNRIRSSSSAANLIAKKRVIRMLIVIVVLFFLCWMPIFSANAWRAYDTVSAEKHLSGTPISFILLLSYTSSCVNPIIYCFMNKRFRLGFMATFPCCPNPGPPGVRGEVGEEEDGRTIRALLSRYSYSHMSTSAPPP
As to the kind of experiment: peripheral CCK receptor binding affinity on rat pancreas homogenate (inhibition of 3[H]-CCK-8 binding). Set-up: species or system rat (male Wistar). As to conditions: 0.3 nM 3[H]-CCK-8, 90 min, 25° C., pH 7.4, calculated from IC50 by Cheng-Prusoff, read-out: In vitro binding to peripheral CCK receptors (pancreas) pKi values (converted). Here is the method:
The affinity of the compounds of formula I for peripheral CCK receptors was measured in vitro on rat pancreas homogenate. The inhibition of the binding of the physiologically relevant octopeptide CCK-8 to peripheral CCK receptors by the test substances was determined.
The receptor binding studies were carried out by a modification of the method of van Dijk et al. (J. Neuroscience 4 (1984), 1021-1033), using soya bean trypsin inhibitor (=SBTI) as protease inhibitor. ^3 [H]-CCK-8, code TRK 775, from Amersham Int., having a specific activity of 60-90 Ci/mmol, was used as tritium-labelled CCK-8.
Whole pancreas glands from male Wistar rats with a body weight of 150-300 g, which had been sacrificed by decapitation, were freed of fatty tissue and homogenized for 15 seconds in a 50-fold volume of an ice-cold test buffer solution (10 mmol 2-[4-(2-hydroxyethyl)-piperazin-1-yl]-ethanesulfonic acid (=HEPES), 130 mmol sodium chloride, 5 mmol magnesium chloride, 0.02% bacitracins, 0.01% SBTI, pH 7.4) with a Kinematica Polytron type homogenizer. The homogenates were then centrifuged at 48,000 g for 10 minutes. This washing method was repeated. After the last centrifugation, the residue which was obtained each time in the form of a pellet was suspended in a 550-fold volume of the test buffer solution and immediately used for the measurement.
For the binding test, 500 μl of the tissue homogenate were incubated with 50 μl of test buffer solution or 50 μl of a solution of the compound to be investigated and with 50 μl of a ^3 [H]-CCK-8 solution (final concentration 0.3 nM). The non-specific binding was assumed to be 0.1 μmol CCK-8. The incubation lasted 90 minutes at 25° C. All the compounds were measured 3 times at each of several concentrations.
Aqueous solutions were employed as test substance solutions and were prepared by appropriate dilution of 60×10^-4 molar aqueous stock solutions. Test substances which are sparingly soluble in water were first dissolved in 96% ethanol, and this solution was diluted with sufficient water for the ethanol concentration not to exceed 1.6% by volume in the solution to be tested.
Bound and free ^3 [H]-CCK-8 were separated by filtration through glass fiber filters. The filters were washed twice with 3 ml of HEPES solution each time and then placed in the scintillation solution (SAVE scintillation solution from Packard) in the dark overnight and counted in a Packard TriCarb 1500™liquid scintillation counter. The IC50 of the respective test substance was determined to be that concentration which caused a 50% inhibition of the specific binding of tritiated CCK-8 to the receptors. From this, the corresponding pKi value was calculated using the Cheng-Prusoff equation. […]

The test system of data set [3] is CCK-induced disturbance of stomach emptying. The data set can be described thus: effect of test substances on CCK-induced disturbances of emptying of the stomach (charcoal transport into duodenum). Format: in vivo, mouse (female NMRI). Here is the method: Doses of CCK lead to substantial blockade of the transpyloric transport of chyme from the stomach into the duodenum. The ability of the test substances to eliminate this blocking effect of CCK was investigated.
Female NMRI mice having body weights of 20-25 g were used in groups of ten animals each. […] A control group received only the Tylose® solution or the solution containing the solubilizer polyethylene glycol in each case. 60 minutes later the animals were given a subcutaneous injection of 80 Ig/kg CCK-8. After a further 5 minutes the animals were each orally administered 0.3 ml of a charcoal suspension (5% charcoal in 2% strength Tylose solution). The mice were sacrificed 5 minutes later and subsequently dissected. They were examined to find whether charcoal suspension had advanced into the duodenum.
The percentage of animals in which the CCK effect was eliminated and charcoal suspension was found in the duodenum after administration of the test substances was determined.

Data set [4] is described as follows: determination of the minimum toxic dose. Format: in vivo, mouse (male). As to conditions: mouse, oral; lowest dose causing death or serious symptoms of toxicity; max 300 mg/kg; 24 h. Here is the method: Male mice weighing 20-25 g were given maximum oral doses of 300 mg/kg of the test substance. The animals were observed carefully for three hours for symptoms of toxicity. In addition, all symptoms and deaths were recorded for a period of 24 hours after administration. Concomitant symptoms were likewise observed and recorded. If death or serious symptoms of toxicity were observed, further mice were given increasingly lower doses. The lowest dose which caused death or serious symptoms of toxicity is indicated in the following Table A as the minimum toxic dose.

The mark [5] stands for this setting: dose 10 μmol/kg mouse oral, CCK-8 i.p. 60 min later.
Setting [6] is: dose 0.215 μmol/kg mouse oral, CCK-8 s.c. 60 min later.
Setting [7] is: dose 100 μmol/kg mouse oral, CCK-8 i.p. 60 min later.
The mark [8] stands for this setting: dose 1.0 μmol/kg mouse oral, CCK-8 s.c. 60 min later.

Turning to `COc1ccc2c(c1)N(C)C(=O)C(NC(=O)c1cc3cccc4c3n1CCC4)N=C2c1ccccc1` (single isomer, unassigned; (-)) [Example 2a, (-)-3-[(4H-pyrrolo[3,2,1-ij]-5,6-dihydroquinoline-2-carbonyl)-amino]-8-methoxy-1-methyl-2-oxo-5-phenyl-1H-2,3-dihydro-1,4-benzodiazepine], the “% Inhibition of CCK-induced Gallbladder Emptying” value (“% Inhibition” below) in data set [1] (dose 0.46 μmol/kg mouse oral, CCK-8 i.p. 60 min later) was determined as 16%. Moreover, the Ki in data set [2] was 0.257 nM. In data set [3] (dose 0.1 μmol/kg mouse oral, CCK-8 s.c. 60 min later), the “% of Animals in which the CCK Effect was Eliminated” value (“% of Animals” for short) amounted to 100%.
Turning to `COc1ccc2c(c1)N(C)C(=O)C(NC(=O)c1cc3cccc4c3n1CCC4)N=C2c1ccccc1` (stereo not drawn) [Example 1, 3-[(4H-Pyrrolo[3,2,1-ij]-5,6-dihydroquinoline-2-carbonyl)-amino]-8-methoxy-1-methyl-2-oxo-5-phenyl-1H-2,3-dihydro-1,4-benzodiazepine], the “% Inhibition” value in data set [1] (dose 1 μmol/kg mouse oral, CCK-8 i.p. 60 min later) was less than 25%; in data set [1] (setting [5]) it was 66%. Moreover, the Ki in data set [2] was 1.35 nM. The molecule also yielded a Minimum toxic dose in data set [4] of more than 300 mg/kg. Also, the “% of Animals” value in data set [3] (setting [6]) was determined as 50%.
For `CN1C(=O)C(NC(=O)c2cc3cccc4c3n2CCC4)N=C(c2ccccc2)c2ccccc21` (stereo not drawn) [Example 6, 3-[(4H-Pyrrolo[3,2,1-ij]-5,6-dihydroquinoline-2-carbonyl)-amino]-1-methyl-2-oxo-5-phenyl-1H-2,3-dihydro-1,4-benzodiazepine], the “% Inhibition” value in data set [1] (setting [5]) worked out at 73%. In addition, the Ki in data set [2] is 3.24 nM. In data set [3] (dose 0.681 μmol/kg mouse oral, CCK-8 s.c. 60 min later), the “% of Animals” value is 40%.
Turning to `COc1ccc2c(c1)N(C)C(=O)C(NC(=O)c1cc3cccc4c3n1CCC4)N=C2c1ccccc1F` (stereo not drawn) [Example 9], the “% Inhibition” value in data set [1] (dose 4.6 μmol/kg mouse oral, CCK-8 i.p. 60 min later) is on record as less than 25%; in data set [1] (setting [7]) it was 99%. Besides, the Ki in data set [2] was 0.794 nM. For the same molecule, the Minimum toxic dose in data set [4] was more than 300 mg/kg. Further, the “% of Animals” value in data set [3] (setting [6]) is listed as 50%.
Take `COc1ccc2c(c1)N(C)C(=O)C(NC(=O)c1cc3cccc4c3n1CCC4)N=C2c1ccc(F)cc1F` (stereo not drawn) [Example 15]: the “% Inhibition” value in data set [1] (setting [5]) is recorded as less than 25%; in data set [1] (setting [7]), 100%; in data set [1] (dose 0.1* μmol/kg mouse oral, * = administered in solution containing solubilizer), less than 25%. The Ki in data set [2] is 1.23 nM. In addition, the “% of Animals” value is 57% in data set [3] (setting [8]) and 90% in data set [3] (dose 0.10* μmol/kg mouse oral, * = administered in solution containing solubilizer (PEG 400)).
Take `CN1C(=O)C(NC(=O)c2cc3cccc4c3n2CCC4)N=C(c2c(F)cccc2F)c2ccccc21` (stereo not drawn) [Example 20]: in data set [1] (setting [5]), the “% Inhibition” value is listed as 25%. In addition, in data set [2], the Ki is 0.851 nM. This molecule also had a Minimum toxic dose in data set [4] of more than 300 mg/kg. For the same molecule, the “% of Animals” value in data set [3] (setting [8]) came out at 50%.
For `CN1C(=O)C(NC(=O)c2cc3cccc4c3n2CC4)N=C(c2ccccc2)c2ccccc21` (stereo not drawn) [Example 33], in that order: 19%, 3.72 nM, more than 300 mg/kg and 50%.
